Reference: patent US20030134779A1, “Method and composition for treatment and/or prevention of antibiotic-resistant microorganism infections” (priority 2002, published 2003)

Experiments:
S. aureus ATCC 25923 = test: Checkerboard MICs and FIC index, penicillin with bovine LF; assay type: cell-based, Staphylococcus aureus
Method: The MICs were determined by both macrodilution (1 ml/tube) and microdilution (100 μl/well) in sterile 96 well microtiter plates (International Nunc, Napierville, Ill.) techniques in three separate experiments according to the National Committee for Clinical Laboratory Standards (1992 and 1999) in three separate experiments. Serial 2-fold dilutions in MHB of LF, LFC, antibiotic or combination of LF or LFC with antibiotic were inoculated with an overnight culture at a final inoculum of 10^6 cfu/ml in MHB. Effect of LF combination with antibiotic on MICs were determined by adding 0.5 mg or 1 mg/ml of LF to each antibiotic dilution. The MIC was defined as the lowest concentration of drug (highest dilution) that caused a complete inhibition of bacterial growth after an incubation of 18 h. Effect of LF or LFC combination with antibiotic on MIC was also determined by checkerboard method using 96 well microtiter plates. Each antibiotic dilution (50 μl) was serially added to the wells in vertical rows starting from the top (lower dilution) to the bottom. Lactoferrin or LFC (50 μl) were added to 50 μl of each antibiotic dilution and serially diluted starting at the left (lower dilution) to the right. After inoculation, the final concentration of antibiotic from top to bottom were 32 to 8, 2 to 0.5, 0.5 to 0.125 μg/ml for penicillin, cefazolin and neomycin, respectively. From left to right, the concentration of LF or LFC were 25 to 0.0244 mg/ml or 256 to 0.5 μg/ml respectively in a final volume of 100 μl/well. The microplate's were incubated at 37° C. for 24 h. Bacterial growth was measured optically at 540 nm using Spectra Max 250 Microplate Spectrophotometer System of Molecular Device (Fisher Scientific, Ottawa, Canada). Tubes were incubated at 37° C. for 18 h and bacterial growth was measured by visual examination and optically at 540 nm using a spectrophotometer (Philips PU 8800; Pye Unican Ltd, Cambridge, UK). The fractional inhibitory concentration (FIC) was calculated as described by Eliopoulos and Moellering (1991).
FIC antibiotic A=MICantibiotic A (in the presence of antibiotic B)/MICantibiotic A alone. FIC Index=FICantibiotic A+FICantibiotic B
The effects of the antibiotics were considered to be synergistic or indifferent when FIC Index was<1 or>1, respectively.

[1] = tested on: β-lactamase activity of S. aureus SHY97-4320; test: β-lactamase activity, nitrocefin assay, bovine LF/LFC; assay type: cell-based; details: 8-μg/ml penicillin G alone
Method: The effects of sub-MICs of LF (1 mg/ml), LFC (32 and 64 μg/ml) alone or in combination with ampicillin (4μg/ml) or penicillin G (8 μg/ml) were evaluated on the β-lactamase activity of S. aureus strains SHY97-4320 and PC-1. The chromogenic cephalosporin nitrocefin (Becton Dickinson, Microbiology, Cockeysville, Md.) was used in a quantitative spectrophotometric assay. Bacterial cells were first exposed during 4 and 22-h to drugs in broth. The number of bacteria (cfu/ml) were determined and cells aliquots were centrifuged at each point in time. The pellets were suspended in 10 mM HEPES buffer (pH 7.4) to an OD415 nm of 1 for PC-1 and 2 for SHY97-4320. Nitrocefin (100 μM) was added to 100 μl of cells in a final volume of 1 ml. Hydrolysis was measured at 486 nm on spectrophotometer. β-lactamase activity was expressed as ΔO.D.486 nm/min and corrected for bacterial OD.

[2] = tested on: β-lactamase (BlaZ) gene expression in S. aureus strain SHY97-4320; test: BlaZ gene expression, real-time quantitative RT-PCR, and total RNA; assay type: cell-based, Staphylococcus aureus
Method: Fresh MHB containing or not 8 μg/ml of penicillin G and/or 1 mg/ml of bovine LF (2×2 factorial design) was adjusted to an optical density at 540 nm of 0.04 with an overnight culture of S. aureus and then incubated at 37° C. with agitation (150 rpm). After 4 and 22-h of incubation, aliquots were removed to determine bacterial growth by viable count (colony forming unit per ml, cfu/ml), measuring the culture turbidity (OD540nm) with a spectrophotometer Philips PU and to measure β-lactamase activity in bacterial cells. Following culture under the same condition, bacterial cells were collected for RNA extraction.
Total bacterial RNA was prepared using the RNeasy minikit (Qiagen, Mississauga, ON, Canada). Washed bacteria were first treated with 50 μg/ml of lysostaphin (GramCracker, Ambion, Austin, Tex.) for 10 min at 37° C. and RNA was purified according to the manufacturer's protocol. Contaminating DNA was removed from total RNA by using 1 U of Rnase-free Dnase I (Gibco Life Technologies, Grand Island, N.Y.) in a 10 μl reaction mixture containing approximately 50 ng of total RNA per μl and 20mM Tris-HCl (pH 8.4), 2 mM MgCl2 and 50 mM KCl. The reaction mixture was incubated for 15 min at room temperature, and the Dnase I was inactivated by adding 1 μl of 25 mM EDTA to the mixture and incubating for 10 min at 65° C. before assessing quantity and purity. Amount of cellular RNA was then determined by measuring the OD260 nm and OD280 nm.
Real-Time fluorescence-based 5′ nuclease PCR which is a widely accepted method for measuring gene expression levels was used to quantify β-lactamase BlaZ RNA by RT-PCR on ABI Prism™ 7700 (TaqMan® ) sequence detector (PE Applied Biosystem, Foster City, Calif.). The forward primer, reverse.primer, and TaqMan probe for Real-Time RT-PCR amplification were designed with the PrimerExpress software (PE Applied Biosystem) to specifically amplify the. S. aureus BLAZ gene. Briefly, RNA (50 ng) was added to a 50 μl reaction mixture containing 25 μl of 2×RT-PCR One-Step Universal Master Mix, 1.25 μl of 40×MultiScribe and Rnase Inhibitor Mix, 4.5 μl of the forward primer (10 μM, 5′-[…]-3′, SEQ ID NO:3), 4.5 μl of the reverse primer (10 μM, 5′-[…]-3′, SEQ ID NO:4), and 1.25 μl of TaqMan probe (10 μM, 6FAM-[…]-TAMRA, SEQ ID NO:5). Reverse transcription with the recombinant Moloney Murine Leukemia Virus (M-MuLV) Reverse Transcriptase (0.25 U/μl) was conducted at 48° C. for 30 min. […] The cycle threshold value (CT), indicative of the quantity of target gene at which the fluorescence exceeds a pre-set threshold, was determined and compared to the CT of a standard curve containing known amounts of mRNA (1.1×10^2 to 1.1×10^9) from the BLAZ gene of S. aureus obtained by in vitro transcription. […]

CC1(C)S[C@@H]2[C@H](NC(=O)Cc3ccccc3)C(=O)N2[C@H]1C(=O)O [penicillin G, Penicillin G]
MIC (S. aureus ATCC 25923; Staphylococcus aureus, ATCC25923, in combination with bovine LF, checkerboard): 0.0156 µg/mL | Decrease (of MIC of penicillin) (S. aureus ATCC 25923; by combination with bovine LF): 2 fold | β-lactamase activity [1]: a large increase in β-lactamase activity | BlaZ total: total number of copies of BlaZ gene mRNA/ml of culture ([2]; LF 1 mg/ml and/or penicillin G): 174.9 × 10^5 copies/ml of culture | BlaZ: number of copies of BlaZ gene mRNA/50 ng of mRNA ([2]; LF 1 mg/ml and/or penicillin G): 22.9 × 10^4 copies/50 ng of mRNA | RNA ([2]; adjusted for an OD540nm of 1.0, LF 1 mg/ml and/or penicillin G): 3.22 ± 0.49 :g/ml | increase in the number of copies of the BlaZ mRNA per ml of culture ([2]; penicillin G added to the growth medium, P<0.01): 28 fold
